Reference: patent US20100160351A1, “PHARMACEUTICAL COMPOSITIONS AND METHODS FOR TREATING HYPERURICEMIA AND RELATED DISORDERS” (NUON THERAPEUTICS, INC., priority 2008, published 2010)

Test system: monosodium urate (MSU) crystal-induced air pouch inflammation
Assay: Air Pouch Model 3: MSU crystal air pouch, rodent model of gout
Format: in vivo, male Sprague-Dawley rats
Conditions: 30 min before MSU; for Average Exudate Volume, Mean / Average Plasma Extravasation, OD620 nm, Mean / Total WBC in Sample, Mean / WBC in exudate, Mean: 4 h after MSU
Description: The objective of this study was to evaluate the anti-inflammatory potency of Tranilast. This evaluation was carried out in male Sprague-Dawley rats in a rodent model of gout. The animals were injected subcutaneously with 20 ml of sterile air, followed three days later by a supplemental injection with 20 ml of sterile air. Six days after the initial sterile air injection, the rats were injected intravenously with Evan's Blue and pretreated for thirty minutes with oral administration of 25 mg/kg, 50 mg/kg, 100 mg/kg, 200 mg/kg, or 300 mg/kg tranilast. After the pretreatment period, the rats were injected with 150 mg of monosodium urate (MSU) crystals (10 mg/ml) into the air pouch. Four hours later, the air pouch was injected with 5 ml heparinized saline and the entire contents of the air pouch removed, recording the total volume. The air pouch contents were evaluated for plasma extravasation and total white blood cell (WBC) count.
(§1) On day 0 the rats were anesthetized in a biological cabinet, the nape of the neck was cleansed with 70% isopropanol followed by iodine tincture (VEDCO). Twenty ml sterile (0.22 μm, Millipore, Cat. SLGSV255F) air was injected subcutaneously using a 23 G×2 inch needle fixed to a 20 ml syringe. The rats were returned to routine housing. No adverse reactions were observed.
as §1, with “day 3” for “day 0”, “μm, Fisher Scientific,” for “μm, Millipore,”, “Cat. 09-720-3)” for “Cat. SLGSV255F)”
On day 6 the rats were weighed (Mettler, Model PE3000, SN: F69474) and injected intravenously injected with 2 ml/kg Evans Blue. The animals were dosed orally with 0.5 ml/kg, 1 ml/kg, 2 ml/kg, 4 ml/kg tranilast, or 6 ml/kg tranilast or 6 ml/kg vehicle.
Thirty minutes after test material administration, the rats were anesthetized and six groups (2-7) were injected into the air pouch with 15 ml MSU using a 19 G×2 inch needle fitted to a 20 ml syringe. Group 1 was injected with 15 ml saline. The rats were returned to their cages, no adverse affects were observed.
Four hours after MSU/saline injection, the rats were anesthetized and 5 ml 10 U/ml heparinized saline was injected into the air pouch. The air pouch was gently massaged, the contents immediately removed using a 14 G×1 inch needle fitted to a 6 ml syringe, and the exudate volume recorded. An aliquot of the exudate was transferred to heparin-treated microtainer tubes (Becton Dickinson, Cat. 365958) for white blood cell (WBC) counting. The remainder of the exudate was centrifuged (Hermle Labrotechnik, Model Z200A, SN: 44060036), the supernatants removed and evaluated at OD620nm (Spectronic Unicam, Model 4000 1/4, SN: 3SGD003006) for plasma extravasation.

`COc1ccc(/C=C/C(=O)Nc2ccccc2C(=O)O)cc1OC` [Tranilast, 2-[[3-(3,4-dimethoxyphenyl)-1-oxo-2-propenyl]amino]benzoic acid] was tested, and the “Average Exudate Volume, Mean” value (25 mg/kg oral) was 6.9 mL, the “Average Plasma Extravasation, OD620 nm, Mean” value (“Average Plasma Extravasation” for short) (25 mg/kg oral) was 1.181 and the “Total WBC in Sample, Mean” value (25 mg/kg oral) was 204170000. For the same molecule, the “WBC in exudate, Mean” value (25 mg/kg oral) was 31260000 cells/ml, the “Average Exudate Volume, Mean” value (50 mg/kg oral) was 4.8 mL and the “Average Plasma Extravasation” value (50 mg/kg oral) was 1.071. The “Total WBC in Sample, Mean” value (50 mg/kg oral) was 96948000, the “WBC in exudate, Mean” value (50 mg/kg oral) was 18900000 cells/ml and the “Average Exudate Volume, Mean” value (100 mg/kg oral) was 6.4 mL. The “Average Plasma Extravasation” value (100 mg/kg oral) was 1.276, the “Total WBC in Sample, Mean” value (100 mg/kg oral) was 145408000 and the “WBC in exudate, Mean” value (100 mg/kg oral) was 27440000 cells/ml. For the same molecule, the “Average Exudate Volume, Mean” value (200 mg/kg oral) was 6.2 mL, the “Average Plasma Extravasation” value (200 mg/kg oral) was 1.033 and the “Total WBC in Sample, Mean” value (200 mg/kg oral) was 71692000. For the same molecule, the “WBC in exudate, Mean” value (200 mg/kg oral) was 12000000 cells/ml, the “Average Exudate Volume, Mean” value (300 mg/kg oral) was 5.6 mL and the “Average Plasma Extravasation” value (300 mg/kg oral) was 0.611. The “Total WBC in Sample, Mean” value (300 mg/kg oral) was 29232000, the “WBC in exudate, Mean” value (300 mg/kg oral) was 5880000 cells/ml and the “inhibition of plasma extravasation” value (highest dose 300 mg/kg oral) was 65%. The “inhibition of white blood cell infiltration” value (highest dose 300 mg/kg oral) was 90% and the “effect on MSU-induced parameters (plasma extravasation, leukocyte infiltration)” value (oral 25-300 mg/kg) was “dose-dependent inhibition”.
